# Tested on: Saccharomyces cerevisiae wild type strain BY4743
# Assay: AF1 metabolite analysis (GC-MS, LC-MS) of yeast cells treated with antifungal drugs
# Type: cell-based
structure (smiles),measurement,setting,value
C[C@@H]1[C@H](O)[C@@H](C)/C=C/C=C/C=C/C=C/C=C/C=C/C=C/[C@H](O[C@@H]2O[C@H](C)[C@@H](O)[C@H](N)[C@@H]2O)C[C@@H]2O[C@](O)(C[C@@H](O)C[C@@H](O)[C@H](O)CC[C@@H](O)C[C@@H](O)CC(=O)O[C@H]1C)C[C@H](O)[C@H]2C(=O)O [Amphoteracin B],"Fold Change, menthol*",platform nLC,−0.07013
same,"Fold Change, methionine",platform nLC,0
same,"Fold Change, nicotinic acid",platform nLC,0.3131
same,"Fold Change, nopaline",platform nLC,0.3342
same,"Fold Change, oleic acid",platform nLC,0.689
same,"Fold Change, ornithine",platform nLC,2.534
same,"Fold Change, orotic acid",platform nLC,8380
same,"Fold Change, palmitic acid",platform nLC,0.3979
same,"Fold Change, phenylalanine",platform nLC,−0.1906
same,"Fold Change, phenylpyruvic acid",platform nLC,0
same,"Fold Change, phosphoenolpyruvate",platform nLC,0
same,"Fold Change, pinitol",platform nLC,0
same,"Fold Change, pipecolic acid",platform nLC,0.08112
same,"Fold Change, porphobilinogen",platform nLC,0
same,"Fold Change, proline",platform nLC,0.4603
same,"Fold Change, pyridoxine",platform nLC,−0.1294
same,"Fold Change, retinoic acid",platform nLC,0
same,"Fold Change, salicylic/HObenzoic",platform nLC,0
same,"Fold Change, selenoDLmethionine",platform nLC,0.8515
same,"Fold Change, serine",platform nLC,0.1091
same,"Fold Change, shikimic acid",platform nLC,0
same,"Fold Change, sinapinic acid",platform nLC,0
same,"Fold Change, sorbitol/mannitol",platform nLC,0.2162
same,"Fold Change, succinic",platform nLC,0.8663
same,"Fold Change, sucrose",platform nLC,0.4493
same,"Fold Change, sugar-phosphate",platform nLC,−0.1067
same,"Fold Change, tetradecanoic acid",platform nLC,−0.07723
same,"Fold Change, threonine/homoserin",platform nLC,0.1267
same,"Fold Change, thymine",platform nLC,0
same,"Fold Change, tryptophan",platform nLC,1.142
same,"Fold Change, tyrosine",platform nLC,0.0982
same,"Fold Change, uracil",platform nLC,1.511
same,"Fold Change, uridine",platform nLC,0.1126
same,"Fold Change, urocanic acid",platform nLC,0
same,"Fold Change, valine",platform nLC,0.1624
same,"Fold Change, xanthosineDiH2O",platform nLC,0
same,"Fold Change, zeatin",platform nLC,0
same,"Fold Change, 4-aminobenzoic acid",platform pLC,0
same,"Fold Change, 4-methylcatechol",platform pLC,0
same,"Fold Change, 4ambutyrate/dimglyc",platform pLC,0.01279
same,"Fold Change, 5hydroxyLtryptophan",platform pLC,0
same,"Fold Change, 6benzylaminopurine",platform pLC,0
same,"Fold Change, DL-aminoadipic acid",platform pLC,0.4703
same,"Fold Change, NacetylDglucosamine",platform pLC,0
same,"Fold Change, NacetylLglutamate",platform pLC,0
same,"Fold Change, NacetylLornithine",platform pLC,1.319
same,"Fold Change, abscisic acid",platform pLC,0
same,"Fold Change, adenine",platform pLC,0.1153
same,"Fold Change, adenosine",platform pLC,0
same,"Fold Change, alanine/sarcosine",platform pLC,0.2602
same,"Fold Change, allantoic acid",platform pLC,0
same,"Fold Change, anthranilic acid",platform pLC,0
same,"Fold Change, arginine",platform pLC,0.4662
same,"Fold Change, argininosuccinate",platform pLC,0
same,"Fold Change, asparagine",platform pLC,0.6344
same,"Fold Change, aspartic acid",platform pLC,0.3594
same,"Fold Change, biotin",platform pLC,0
same,"Fold Change, caffeine",platform pLC,0
same,"Fold Change, citric acid TME",platform pLC,0
same,"Fold Change, citrulline",platform pLC,1.798
same,"Fold Change, cytidine",platform pLC,0
same,"Fold Change, cytosine",platform pLC,0
same,"Fold Change, diaminopimelic acid",platform pLC,0
same,"Fold Change, dihydrofolic acid",platform pLC,0
same,"Fold Change, dipicolinic acid",platform pLC,0
same,"Fold Change, folic acid",platform pLC,0
same,"Fold Change, glucosamine",platform pLC,0
same,"Fold Change, glucosamine6PO4",platform pLC,0
same,"Fold Change, glutamate",platform pLC,0.4341
same,"Fold Change, glutamine/lysine",platform pLC,0.3981
same,"Fold Change, glutathione",platform pLC,−0.03348
same,"Fold Change, guanosine",platform pLC,0.7598
same,"Fold Change, histidine",platform pLC,0
same,"Fold Change, hydrocortisone",platform pLC,0
same,"Fold Change, hypoxanthine",platform pLC,0.2057
same,"Fold Change, itaconic acid dimes",platform pLC,0
same,"Fold Change, kinetin",platform pLC,0
same,"Fold Change, leucine/isoleucine/",platform pLC,0.2746
same,"Fold Change, luteolin",platform pLC,0
same,"Fold Change, mannitol",platform pLC,0.4543
same,"Fold Change, methionine",platform pLC,0.3299
same,"Fold Change, mevalonic lactone",platform pLC,−0.4606
same,"Fold Change, niacinamide",platform pLC,0
same,"Fold Change, nicotinic acid",platform pLC,−0.9989
same,"Fold Change, nopaline",platform pLC,0
same,"Fold Change, ornithine",platform pLC,0.5049
same,"Fold Change, phenylalanine",platform pLC,0.4036
same,"Fold Change, phosphoenolpyruvate",platform pLC,0
same,"Fold Change, pipecolic acid",platform pLC,0.5237
same,"Fold Change, progesterone",platform pLC,0
same,"Fold Change, proline",platform pLC,0.6707
same,"Fold Change, pyridoxine",platform pLC,−0.1684
same,"Fold Change, riboflavin",platform pLC,0
same,"Fold Change, selenoDLmethionine",platform pLC,1.178
same,"Fold Change, serine",platform pLC,0.2011
same,"Fold Change, sugar-phosphate",platform pLC,0
same,"Fold Change, thiamine",platform pLC,0
same,"Fold Change, threonine/homoserin",platform pLC,0.3145
same,"Fold Change, thymine",platform pLC,0
same,"Fold Change, tryptophan",platform pLC,0
same,"Fold Change, tyrosine",platform pLC,0.2347
same,"Fold Change, uric acid",platform pLC,308
same,"Fold Change, urocanic acid",platform pLC,0
same,"Fold Change, xanthosine(diH2O)",platform pLC,0
same,"Fold Change, zeatin",platform pLC,0

# — patent publication US20030229451A1, “Methods and systems for analyzing complex biological systems” (priority 2001, published 2003)
